According to patent publication US7919504B2, “Thiadiazole modulators of PKB” (Amgen Inc., priority 2007, dated 2011):

Target: T1, PKBα (Homo sapiens, UniProt P31749)
T1 construct: the full length PKBα and a kinase domain of PKBα with pleckstrin domain (amino acids 1-117) deleted
Experiment: PKB kinase assay (P33-labeled ATP, synthetic peptide substrate, filter plate capture)
Assay type: biochemical
Details: with respect to PKBα
From the text: The kinase assay for evaluating PKB activity comprises active PKB enzymes, a PKB specific substrate, and P^33-labeled ATP. Two form of PKBα enzymes were used, the full length PKBα and a kinase domain of PKBα with pleckstrin domain (amino acids 1-117) deleted. Both PKB enzymes were obtained from Upstate cell signaling solutions (Cat. #14-276 and 14-341). The PKB substrate used is a synthetic peptide (ARKRERTYSFGHHA (SEQ ID NO: 1)) as described in Obata et al., J. Biol. Chem. 275 (46), 36108-36115 (2000). The phosphorylated substrate was captured by a phosphocellulose membrane filter plate (MILLIPORE) and measured by a Wallac Microbeta liquid scintillation counter (Perkin Elmer). Table 1 provides the IC50 values obtained for each of the examples with respect to PKBα.

T1 sequence (P31749 118-480 limits assumed): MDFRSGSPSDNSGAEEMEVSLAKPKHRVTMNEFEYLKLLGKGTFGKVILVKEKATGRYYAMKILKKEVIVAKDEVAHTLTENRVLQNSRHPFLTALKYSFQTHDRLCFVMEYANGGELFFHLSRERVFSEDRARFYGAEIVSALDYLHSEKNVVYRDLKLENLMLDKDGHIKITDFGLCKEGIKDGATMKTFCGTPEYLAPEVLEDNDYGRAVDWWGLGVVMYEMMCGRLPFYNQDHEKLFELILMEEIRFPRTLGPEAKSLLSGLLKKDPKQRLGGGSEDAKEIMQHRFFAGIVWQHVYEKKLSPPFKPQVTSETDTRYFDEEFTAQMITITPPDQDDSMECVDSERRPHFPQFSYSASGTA

Row | IC50 [nM] | Structure (SMILES)
1 | 1000 to 10000 | Oc1cccc(C(O)CNc2nnc(-c3ccc4cnccc4c3)s2)c1 (racemic) [Example 24, (±)-3-(1-Hydroxy-2-(5-(isoquinolin-6-yl)-1,3,4-thiadiazol-2-ylamino)ethyl)phenol]
2 | 50 to 1000 | O=C(Nc1nnc(-c2ccc3cnccc3c2)s1)[C@@H]1NCC[C@@H]1c1ccccc1 (racemic) [Example 26, (±)-cis-N-(5-(Isoquinolin-6-yl)-1,3,4-thiadiazol-2-yl)-3-phenylpyrrolidine-2-carboxamide]
3 | 50 to 1000 | OC(CNc1nnc(-c2ccc3cnccc3c2)s1)Cc1ccccc1 (racemic) [Example 29, (±)-1-(5-(isoquinolin-6-yl)-1,3,4-thiadiazol-2-ylamino)-3-phenylpropan-2-ol]
4 | 50 to 1000 | c1ccc([C@@H]2CCN[C@@H]2CNc2nnc(-c3ccc4cnccc4c3)s2)cc1 (racemic) [Example 33, Racemic mixture of 5-(isoquinolin-6-yl)-N-(((2S,3S)-3-phenylpyrrolidin-2-yl)methyl)-1,3,4-thiadiazol-2-amine and 5-(isoquinolin-6-yl)-N-(((2R,3R)-3-phenylpyrrolidin-2-yl)methyl)-1,3,4-thiadiazol-2-amine]
5 | 50 to 1000 | N[C@H](CNc1nnc(-c2cc3c(cc2F)NC(=O)C3)s1)Cc1ccc(C(F)(F)F)cc1 [Example 3, 5-(5-((S)-2-Amino-3-(4-(trifluoromethyl)phenyl)propylamino)-1,3,4-thiadiazol-2-yl)-6-fluoroindolin-2-one]
6 | 1000 to 10000 | CC(C)=C1C(=O)Nc2ccc(-c3nnc(NC[C@@H](N)Cc4ccc(C(F)(F)F)cc4)s3)cc21 [Example 6, 5-(5-((S)-2-Amino-3-(4-(trifluoromethyl)phenyl)propylamino)-1,3,4-thiadiazol-2-yl)-3-(propan-2-ylidene)indolin-2-one]
7 | 50 to 1000 | N[C@H](CNc1nnc(-c2cc3c(Cl)cncc3s2)s1)Cc1ccc(C(F)(F)F)cc1 [Example 9, N-((S)-2-amino-3-(4-(trifluoromethyl)phenyl)propyl)-5-(4-chlorothieno[2,3-c]pyridin-2-yl)-1,3,4-thiadiazol-2-amine]
8 | < 50 | N[C@H](CNc1nnc(-c2cc3ccncc3s2)s1)Cc1ccc(C(F)(F)F)cc1 [Example 10, N-((S)-2-Amino-3-(4-(trifluoromethyl)phenyl)propyl)-5-(thieno[2,3-c]pyridin-2-yl)-1,3,4-thiadiazol-2-amine]
9 | < 50 | N[C@H](CNc1nnc(-c2ccc3[nH]c(=O)oc3c2)s1)Cc1ccc(C(F)(F)F)cc1 [Example 11, 6-(5-((S)-2-Amino-3-(4-(trifluoromethyl)phenyl)propylamino)-1,3,4-thiadiazol-2-yl)benzo[d]oxazol-2(3H)-one]
10 | 50 to 1000 | Cc1cccc(C[C@H](N)CNc2nnc(-c3cc4c(Cl)cncc4s3)s2)c1 [Example 13, N-((S)-2-Amino-3-m-tolylpropyl)-5-(4-chlorothieno[2,3-c]pyridin-2-yl)-1,3,4-thiadiazol-2-amine]
11 | 50 to 1000 | CC1(C)C2CC[C@H](CNc3nnc(-c4ccc5cnccc5c4)s3)C1C2 (stereo partly drawn) [Example 15, N-(((2S)-6,6-Dimethylbicyclo[3.1.1]heptan-2-yl)methyl)-5-(isoquinolin-6-yl)-1,3,4-thiadiazol-2-amine]
12 | 1000 to 10000 | OC[C@H](Nc1nnc(-c2ccc3cnccc3c2)s1)[C@@H](O)c1ccccc1 [Example 16, (1S,2S)-2-(5-(Isoquinolin-6-yl)-1,3,4-thiadiazol-2-ylamino)-1-phenylpropane-1,3-diol]
13 | 50 to 1000 | O[C@@H]1CCCC[C@H]1CNc1nnc(-c2ccc3cnccc3c2)s1 [Example 17, (1R,2S)-2-((5-(Isoquinolin-6-yl)-1,3,4-thiadiazol-2-ylamino)methyl)cyclohexanol]
14 | 1000 to 10000 | c1ccc2[nH]c(CNc3nnc(-c4ccc5cnccc5c4)s3)nc2c1 [Example 18, N-((1H-Benzo[d]imidazol-2-yl)methyl)-5-(isoquinolin-6-yl)-1,3,4-thiadiazol-2-amine]

The remaining lines, values behind:

Row | Structure (SMILES) | IC50 [nM]
15 | CC(Nc1nnc(-c2ccc3cnccc3c2)s1)c1ccco1 (racemic) [Example 22, (±)-N-(1-(Furan-2-yl)ethyl)-5-(isoquinolin-6-yl)-1,3,4-thiadiazol-2-amine] | 1000 to 10000
16 | CCC(O)CNc1nnc(-c2ccc3cnccc3c2)s1 (racemic) [Example 23, (±)-1-(5-(Isoquinolin-6-yl)-1,3,4-thiadiazol-2-ylamino)butan-2-ol] | 1000 to 10000
17 | OC(CNc1nnc(-c2ccc3cnccc3c2)s1)Cc1ccc(C(F)(F)F)cc1 (racemic) [Example 30, (±)-1-(5-(Isoquinolin-6-yl)-1,3,4-thiadiazol-2-ylamino)-3-(4-(trifluoromethyl)phenyl)propan-2-ol] | 50 to 1000
18 | NC(CNc1nnc(-c2cccc3cnncc23)s1)Cc1ccc(C(F)(F)F)cc1 (stereo in doubt) [Example 28, N-((S)-2-amino-3-(4-(trifluoromethyl)phenyl)propyl)-5-(phthalazin-5-yl)-1,3,4-thiadiazol-2-amine] | 1000 to 10000
19 | Cn1c(=O)[nH]c2ccc(-c3nnc(NC[C@@H](N)Cc4ccc(C(F)(F)F)cc4)s3)cc21 [Example 1, 6-(5-((S)-2-Amino-3-(4-(trifluoromethyl)phenyl)propylamino)-1,3,4-thiadiazol-2-yl)-1-methyl-1H-benzo[d]imidazol-2(3H)-one] | < 50
20 | N[C@H](CNc1nnc(-c2ccc3c(c2)CC(=O)N3)s1)Cc1ccc(C(F)(F)F)cc1 [Example 2, 5-(5-((S)-2-amino-3-(4-(trifluoromethyl)phenyl)propylamino)-1,3,4-thiadiazol-2-yl)indolin-2-one] | < 50
21 | CC(F)(F)c1ccc(C[C@H](N)CNc2nnc(-c3ccc4c(c3)CC(=O)N4)s2)cc1 [Example 4, 5-(5-((S)-2-Amino-3-(4-(1,1-difluoroethyl)phenyl)propylamino)-1,3,4-thiadiazol-2-yl)indolin-2-one] | < 50
22 | CC(C)n1c(=O)[nH]c2ccc(-c3nnc(NC[C@@H](N)Cc4ccc(C(F)(F)F)cc4)s3)cc21 [Example 5, 6-(5-((S)-2-Amino-3-(4-(trifluoromethyl)phenyl)propylamino)-1,3,4-thiadiazol-2-yl)-1-isopropyl-1H-benzo[d]imidazol-2(3H)-one] | 1000 to 10000
23 | C[C@@H](c1ccc(C(F)(F)F)cc1)[C@H](N)CNc1nnc(-c2ccc3c(c2)CC(=O)N3)s1 [Example 7, 5-(5-((2S,3S)-2-Amino-3-(4-(trifluoromethyl)phenyl)butylamino)-1,3,4-thiadiazol-2-yl)indolin-2-one] | < 50
24 | N[C@H](CNc1nnc(-c2cc3c(Cl)cncc3s2)s1)Cc1cccc(C(F)(F)F)c1 [Example 8, N-((S)-2-amino-3-(3-(trifluoromethyl)phenyl)propyl)-5-(4-chlorothieno[2,3-c]pyridin-2-yl)-1,3,4-thiadiazol-2-amine] | 50 to 1000
25 | N[C@H](CNc1nnc(-c2cc3c(Cl)cncc3s2)s1)Cc1ccccc1 [Example 12, N-((S)-2-Amino-3-phenylpropyl)-5-(4-chlorothieno[2,3-c]pyridin-2-yl)-1,3,4-thiadiazol-2-amine] | 50 to 1000
26 | N[C@H](CNc1nnc(-c2cc3c(Cl)cncc3s2)s1)Cc1cc(F)cc(F)c1 [Example 14, N-((S)-2-Amino-3-(3,5-difluorophenyl)propyl)-5-(4-chlorothieno[2,3-c]pyridin-2-yl)-1,3,4-thiadiazol-2-amine] | 50 to 1000
